Drawing on patent publication US10519152B2, “Compounds and their use in treating cancer” (AstraZeneca AB, priority 2017, dated 2019), this text covers DC50 and IC50 for five compounds.

Test [1] has as its target T1, Estrogen Receptor (ERα) in MCF-7 human ductal carcinoma breast cell line (Homo sapiens, UniProt P03372).
T1 construct: endogenous in cells; host or cells: MCF-7
T1 sequence (P03372 1-595): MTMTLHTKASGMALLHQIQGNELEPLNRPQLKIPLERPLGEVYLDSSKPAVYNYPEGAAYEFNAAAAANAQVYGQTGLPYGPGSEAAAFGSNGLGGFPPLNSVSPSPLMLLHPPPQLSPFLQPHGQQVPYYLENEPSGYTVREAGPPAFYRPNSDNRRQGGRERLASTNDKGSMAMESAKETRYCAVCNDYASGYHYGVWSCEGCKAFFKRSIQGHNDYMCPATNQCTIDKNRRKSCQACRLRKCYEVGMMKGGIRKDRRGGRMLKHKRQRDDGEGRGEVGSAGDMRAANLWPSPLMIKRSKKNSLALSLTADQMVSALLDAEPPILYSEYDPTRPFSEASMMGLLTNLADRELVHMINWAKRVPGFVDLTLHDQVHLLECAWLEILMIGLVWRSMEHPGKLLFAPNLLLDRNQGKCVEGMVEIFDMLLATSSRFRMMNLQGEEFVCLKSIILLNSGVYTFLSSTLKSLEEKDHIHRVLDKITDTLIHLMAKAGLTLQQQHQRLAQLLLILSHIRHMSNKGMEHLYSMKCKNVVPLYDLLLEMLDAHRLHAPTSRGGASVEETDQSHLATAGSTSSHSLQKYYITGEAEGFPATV
Description: MCF-7 ER degradation assay (cell based immuno-fluorescence). To be noted: MCF-7 cells, 18-22 hours incubation, 50% reduction of ERα expression; single experiment or average of two or more; read-out: MCF-7 ER degradation IC50. The method, then: MCF-7 ER Degradation Assay
The ability of compounds to down-regulate Estrogen Receptor (ER) numbers was assessed in a cell based immuno-fluorescence assay using the MCF-7 human ductal carcinoma breast cell line. MCF-7 cells were revived directly from a cryovial (approx 5×10^6 cells) in Assay Medium (phenol red free Dulbecco's Modified Eagle's medium (DMEM); Sigma D5921) containing 2 mM L-Glutamine and 5% (v/v) Charcoal/Dextran treated foetal calf serum. Cells were syringed once using a sterile 18 G×1.5 inch (1.2×40 mm) broad gauge needle and cell density was measured using a Coulter Counter (Beckman). Cells were further diluted in Assay Medium to a density of 3.75×10^4 cells per mL and 40 μL per well added to transparent bottomed, black, tissue culture-treated 384 well plates (Costar, No. 3712) using a Thermo Scientific Matrix WellMate or Thermo Multidrop. Following cell seeding, plates were incubated overnight at 37° C., 5% CO2 (Liconic carousel incubator). Test data was generated using the LabCyte Echo™ model 555 compound reformatter which is part of an automated workcell (Integrated Echo 2 workcell). Compound stock solutions (10 mM) of the test compounds were used to generate a 384 well compound dosing plate (Labcyte P-05525-CV1). 40 μL of each of the 10 mM compound stock solutions was dispensed into the first quadrant well and then 1:100 step-wise serial dilutions in DMSO were performed using a Hydra II (MATRIX UK) liquid handling unit to give 40 μL of diluted compound into quadrant wells 2 (0.1 mM), 3 (1 μM) and 4 (0.01 μM), respectively. 40 μL of DMSO added to wells in row P on the source plate allowed for DMSO normalisation across the dose range. To dose the control wells 40 μL of DMSO was added to row O1 and 40 μL of 100 μM fulvestrant in DMSO was added to row O3 on the compound source plate.
The Echo uses acoustic technology to perform direct microplate-to-microplate transfers of DMSO compound solutions to assay plates. The system can be programmed to transfer volumes as low as 2.5 nL in multiple increments between microplates and in so doing generates a serial dilution of compound in the assay plate which is then back-filled to normalise the DMSO concentration across the dilution range. Compounds were dispensed onto the cell plates with a compound source plate prepared as above producing a 12 point duplicate […] dose range with 3-fold dilutions and one final 10-fold dilution using the Integrated Echo 2 workcell. The maximum signal control wells were dosed with DMSO to give a final concentration of 0.3%, and the minimum signal control wells were dosed with fulvestrant to give a final concentration of 100 nM accordingly. Plates were further incubated for 18-22 hours at 37° C., 5% CO2 and then fixed by the addition of 20 μL of 11.1% (v/v) formaldehyde solution (in phosphate buffered saline (PBS)) giving a final formaldehyde concentration of 3.7% (v/v). Cells were fixed at room temperature for 20 mins before being washed two times with 250 μL PBS/Proclin (PBS with a Biocide preservative) using a BioTek platewasher, 40 μL of PBS/Proclin was then added to all wells and the plates stored at 4° C. The fixing method described above was carried out on the Integrated Echo 2 workcell. Immunostaining was performed using an automated AutoElisa workcell. The PBS/Proclin was aspirated from all wells and the cells permeabilised with 40 μL PBS containing 0.5% Tween™ 20 (v/v) for 1 hour at room temperature. The plates were washed three times in 250 μL of PBS/0.05% (v/v) Tween 20 with Proclin (PBST with a Biocide preservative) and then 20 μL of ERα (SP1) Rabbit monoclonal antibody (Thermofisher) 1:1000 in PBS/Tween™/3% (w/v) Bovine Serum Albumin was added. The plates were incubated overnight at 4° C. (Liconic carousel incubator) and then washed three times in 250 μL of PBS/0.05% (v/v) Tween™ 20 with Proclin (PBST). […]

In test [2] the target is T2, recombinant human Estrogen Receptor alpha ligand binding domain, residues 307-554 (ER alpha-LBD (GST)) (Homo sapiens, UniProt P03372).
T2 construct: made in house
T2 sequence (P03372 307-554): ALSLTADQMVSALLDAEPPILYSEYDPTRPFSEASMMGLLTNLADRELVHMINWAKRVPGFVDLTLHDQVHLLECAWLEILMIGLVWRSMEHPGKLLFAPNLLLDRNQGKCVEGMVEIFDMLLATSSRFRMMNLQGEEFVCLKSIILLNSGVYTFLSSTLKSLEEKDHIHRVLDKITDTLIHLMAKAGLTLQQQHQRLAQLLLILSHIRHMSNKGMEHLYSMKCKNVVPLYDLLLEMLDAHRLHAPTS
Description: ERα binding assay (LanthaScreen TR-FRET competition). The settings on record: TR-FRET competition with Fluormone ES2 tracer, 4 hours at room temperature; single experiment or average of two or more. The method, then: The ability of compounds to bind to isolated Estrogen Receptor Alpha Ligand binding domain (ER alpha-LBD (GST)) was assessed in competition assays using a LanthaScreen™ Time-Resolved Fluorescence Resonance Energy Transfer (TR-FRET) detection end-point. For the LanthaScreen TR-FRET endpoint, a suitable fluorophore (Fluormone ES2, ThermoFisher, Product code P2645) and recombinant human Estrogen Receptor alpha ligand binding domain, residues 307-554 (expressed and purified in-house) were used to measure compound binding. The assay principle is that ER alpha-LBD (GST) is added to a fluorescent ligand to form a receptor/fluorophore complex. A terbium-labelled anti-GST antibody (Product code PV3551) is used to indirectly label the receptor by binding to its GST tag, and competitive binding is detected by a test compound's ability to displace the fluorescent ligand, resulting in a loss of TR-FRET signal between the Tb-anti-GST antibody and the tracer. The assay was performed as follows with all reagent additions carried out using the Beckman Coulter BioRAPTR FRD microfluidic workstation: • 1. Acoustic dispense 120 nL of the test compound into a black low volume 384 well assay plates. • 2. Prepare 1×ER alpha-LBD/Tb-antiGST Ab in ES2 screening buffer and incubate for 15 minutes. • 3. Dispense 6 μL of the […] reagent into each well of the assay plate followed by 6 μL of Fluorophore reagent into each well of the assay plate • 4. Cover the assay plate to protect the reagents from light and evaporation, and incubate at room temperature for 4 hours. • 5. Excite at 337 nm and measure the fluorescent emission signal of each well at 490 nm and 520 nm using the BMG PheraSTAR.
Compounds were dosed directly from a compound source microplate containing serially diluted compound (4 wells containing 10 mM, […] and 10 nM final compound respectively) to an assay microplate using the Labcyte Echo 550. The Echo 550 is a liquid handler that uses acoustic technology to perform direct microplate-to-microplate transfers of DMSO compound solutions and the system can be programmed to transfer multiple small nL volumes of compound from the different source plate wells to give the desired serial dilution of compound in the assay which is then back-filled to normalise the DMSO concentration across the dilution range.
In total 120 nL of compound plus DMSO were added to each well and compounds were tested in a 12-point concentration response format over a final compound concentration range of 10, 2.917, 1.042, 0.2083, 0.1, 0.0292, 0.0104, 0.002083, 0.001, 0.0002917, 0.0001042, and 0.00001 μM respectively. TR-FRET dose response data obtained with each compound was exported into a suitable software package (such as Origin or Genedata) to perform curve fitting analysis. Competitive ER alpha binding was expressed as an IC50 value. This was determined by calculation of the concentration of compound that was required to give a 50% reduction in tracer compound binding to ER alpha-LBD.
For orientation: In TR-FRET formats the signal depends on donor and acceptor labels being close together.

Turning to `Cc1ncsc1-c1ccc(CNC(=O)[C@@H]2C[C@@H](O)CN2C(=O)[C@@H](NC(=O)C(C)(C)OCCCCCCOc2cc(F)c([C@@H]3c4[nH]c5ccccc5c4C[C@@H](C)N3CC(C)(C)F)c(F)c2)C(C)(C)C)cc1` [Example 117, (2S,4R)-1-((S)-2-(2-((6-(3,5-Difluoro-4-((1R,3R)-2-(2-fluoro-2-methylpropyl)-3-methyl-2,3,4,9-tetrahydro-1H-pyrido[3,4-b]indol-1-yl)phenoxy)hexyl)oxy)-2-methylpropanamido)-3,3-dimethylbutanoyl)-4-hydroxy-N-(4-(4-methylthiazol-5-yl)benzyl)pyrrolidine-2-carboxamide], the DC50 in test [1] was determined as 22 nM. Also, the IC50 in test [2] was 0.8 nM.
Consider `Cc1ncsc1-c1ccc(CNC(=O)[C@@H]2C[C@@H](O)CN2C(=O)[C@@H](NC(=O)CN2CCN(CCCCCOc3cc(F)c([C@@H]4c5[nH]c6ccccc6c5C[C@@H](C)N4CC(C)(C)F)c(F)c3)CC2)C(C)(C)C)cc1` [Example 2, (2S,4R)-1-((S)-2-(2-(4-(5-(3,5-Difluoro-4-((1R,3R)-2-(2-fluoro-2-methylpropyl)-3-methyl-2,3,4,9-tetrahydro-1H-pyrido[3,4-b]indol-1-yl)phenoxy)pentyl)piperazin-1-yl)acetamido)-3,3-dimethylbutanoyl)-4-hydroxy-N-(4-(4-methylthiazol-5-yl)benzyl)pyrrolidine-2-carboxamide], for which the DC50 in test [1] turned out to be 2.9 nM. Also, the IC50 in test [2] was 0.6 nM.
The like results for `Cc1ncsc1-c1ccc(CNC(=O)[C@@H]2C[C@@H](O)CN2C(=O)[C@@H](NC(=O)CCCNCCCCCCOc2cc(F)c([C@@H]3c4[nH]c5ccccc5c4C[C@@H](C)N3CC(C)(C)F)c(F)c2)C(C)(C)C)cc1` [Example 151, (2S,4R)-1-((S)-2-(4-((6-(3,5-Difluoro-4-((1R,3R)-2-(2-fluoro-2-methylpropyl)-3-methyl-2,3,4,9-tetrahydro-1H-pyrido[3,4-b]indol-1-yl)phenoxy)hexyl)amino)butanamido)-3,3-dimethylbutanoyl)-4-hydroxy-N-(4-(4-methylthiazol-5-yl)benzyl)pyrrolidine-2-carboxamide] were, in that order, 54 nM and 3.6 nM.
For `Cc1ncsc1-c1ccc(CNC(=O)[C@@H]2C[C@@H](O)CN2C(=O)[C@@H](NC(=O)CCCCN(C)CCN(C)CCOc2cc(F)c([C@@H]3c4[nH]c5ccccc5c4C[C@@H](C)N3CC(C)(C)F)c(F)c2)C(C)(C)C)cc1` [Example 108, (2S,4R)-1-((S)-2-(5-((2-((2-(3,5-difluoro-4-((1R,3R)-2-(2-fluoro-2-methylpropyl)-3-methyl-2,3,4,9-tetrahydro-1H-pyrido[3,4-b]indol-1-yl)phenoxy)ethyl)(methyl)amino)ethyl)(methyl)amino)pentanamido)-3,3-dimethylbutanoyl)-4-hydroxy-N-(4-(4-methylthiazol-5-yl)benzyl)pyrrolidine-2-carboxamide] the same measures were 1.1 nM and 0.6 nM.
The like results for `Cc1ncsc1-c1ccc(CNC(=O)[C@@H]2C[C@@H](O)CN2C(=O)[C@@H](NC(=O)CCN2CCN(CCCCOc3cc(F)c([C@@H]4c5[nH]c6ccccc6c5C[C@@H](C)N4CC(C)(C)F)c(F)c3)CC2)C(C)(C)C)cc1` [Example 98, (2S,4R)-1-((S)-2-(3-(4-(4-(3,5-Difluoro-4-((1R,3R)-2-(2-fluoro-2-methylpropyl)-3-methyl-2,3,4,9-tetrahydro-1H-pyrido[3,4-b]indol-1-yl)phenoxy)butyl)piperazin-1-yl)propanamido)-3,3-dimethylbutanoyl)-4-hydroxy-N-(4-(4-methylthiazol-5-yl)benzyl)pyrrolidine-2-carboxamide] were, in that order, 0.4 nM and 0.6 nM.

A word on the IC50: it is the concentration that inhibits the measured activity by half.
